By IC50 is commonly meant the concentration at which inhibition is half-maximal. The term Ki denotes a measure of affinity in units of concentration, obtained from inhibition or displacement.

This is an account of results in PMC9103596, “The inhibitory effect of boric acid on hypoxia-regulated tumour-associated carbonic anhydrase IX” (Journal of Enzyme Inhibition and Medicinal Chemistry, 2022).

Molecules are shown by their SMILES. Read-outs that look alike come from different tables or passages of the source.

Assay [1] relates to HT29 (human colon cancer) cells. To be noted: read-out: IC50 cell viability. The procedure:
(§1) Cells were incubated at 37 °C and 5% CO2 in 25cm[3] flasks. On reaching 80–90% confluence, cell harvesting was performed by washing cells in phosphate-buffered saline (PBS) and then detached from the flask surface using trypsin-EDTA. Cell count was determined using a hematocytometer. Two separate cultures each for both HT29 and A375 were grown, one under normoxic conditions and the second one under hypoxic conditions. The normoxic cultures for HT29 and A375 were grown and incubated at normoxic conditions (37 °C and 5% CO2). […] The hypoxic chamber was placed in a 37 °C incubator for 4 h.
(§2) WST-1 reagent was used to measure mitochondrial dehydrogenase activity and determine cell viability. A 0.5 M stock of B(OH)3 was prepared by dissolving 0.309 g of B(OH)3 in 10 ml of distilled water. HT29 and A375 cells were seeded on 96-well plates and incubated for 24 h, allowing them to adhere to the wells before treatment with B(OH)3. Cells were then treated with 2.5, 5, 10, 25 50, 100, and 200 mM B(OH)3 and topped to 100 µL with a prepared cell medium (one well remaining as an untreated, negative control). The plates were then incubated for 24 and 48 h periods. After each period, […] WST-1 reagent was added to each well and then the plate was incubated for another 3–4 h at 37 °C with 5% CO2. The plates were read by using an Epoch microplate reader (BioTek, Cambridge, MA) with a wavelength of 450 nm. The results were analysed by using GraphPad Prism version 9 (Graphpad Software Inc., La Jolla, CA), for determining the IC50 values, with AZA as standard CA inhibitor. HT29 and A375 cells were seeded 0.3 × 10^6 cells/well into two separate six-well plates. On each well-plate, one column was treated with BA, the second was treated with AZA, and the third column was left untreated, serving as a control.

Assay [2] relates to CA IX levels in A375 cells. The note with it: treated at IC50 concentration for 24 h, ELISA. The procedure: as §1, §2
In general terms: ELISA stands for enzyme-linked immunosorbent assay.

The test system of assay [3] is A375 (human malignant melanoma) cells. The note with it: read-out: IC50 cell viability; A375, WST-1, 48 h. The procedure:
as §1, §2

Assay [4] concerns CA IX levels in HT29 cells. The note with it: treated at IC50 concentration for 24 h, ELISA.
Experimental: Cells were incubated at 37 °C and 5% CO2 in 25cm[3] flasks. On reaching 80–90% confluence, cell harvesting was performed by washing cells in phosphate-buffered saline (PBS) and then detached from the flask surface using trypsin-EDTA. Cell count was determined using a hematocytometer. Two separate cultures each for both HT29 and A375 were grown, one under normoxic conditions and the second one under hypoxic conditions. The normoxic cultures for HT29 and A375 were grown and incubated at normoxic conditions (37 °C and 5% CO2). […] The hypoxic chamber was placed in a 37 °C incubator for 4 h. Hypoxia conditions were confirmed by detecting HIF-1α protein level by using an ELISA kit (Shangai Koon, Shanghai, China).
HT29 and A375 cells were seeded 0.3 × 10^6 cells/well into two separate six-well plates. On each well-plate, one column was treated with BA, the second was treated with AZA, and the third column was left untreated, serving as a control. […] The plates were then set aside to incubate for 24 h under normoxic conditions (37 °C and 5% CO2).
The lysates were collected by centrifugation at 13,000 × g for 15 min at 4 °C. […] These protein levels were determined by using CA IX ELISA kit and HIF1α ELISA kit according to the manufacturer’s instructions. […] Of 50 µL of the stop solution was then added and the microplates were read at 450 nm using the Epoch micro-plate reader (BioTek, Cambridge, MA).
For assay [5], the system named is androgen-sensitive LNCaP prostate cancer cells. To be noted: nude mice injected with LNCaP cells, treated with BA; cited from earlier work.
For a further assay, the target named is hCA XII (Homo sapiens, UniProt O43570). To be noted: read-out: KI hCA XII; stopped-flow CO2 hydrase assay, mean from three assays. The procedure: (§3) The uncatalysed rates were determined in the same manner and subtracted from the total observed rates. Stock solutions of BA (or other inhibitors) (100 mM) were prepared in distilled – deionised water, and dilutions up to 0.01 nM were done thereafter with the assay buffer. Inhibitor and enzyme solutions were preincubated together for 6 h at room temperature prior to assay in order to allow for the formation of the E–I complex. The inhibition constants were obtained by nonlinear least-squares methods using PRISM 3 and the Cheng–Prusoff equation, as reported earlier, and represent the mean from at least three different determinations.

In another assay the target is hCA II (Homo sapiens, UniProt P00918). To be noted: read-out: KI hCA II; stopped-flow CO2 hydrase assay, mean from three assays. The procedure: as §3
The next assay addresses hCA I (Homo sapiens, UniProt P00915). To be noted: read-out: KI hCA I; stopped-flow CO2 hydrase assay, mean from three assays. The procedure: as §3
Another assay has as its target hCA IX (Homo sapiens, UniProt Q16790). To be noted: read-out: KI hCA IX. The procedure:
as §3

Sequence of hCA I (P00915 whole entry): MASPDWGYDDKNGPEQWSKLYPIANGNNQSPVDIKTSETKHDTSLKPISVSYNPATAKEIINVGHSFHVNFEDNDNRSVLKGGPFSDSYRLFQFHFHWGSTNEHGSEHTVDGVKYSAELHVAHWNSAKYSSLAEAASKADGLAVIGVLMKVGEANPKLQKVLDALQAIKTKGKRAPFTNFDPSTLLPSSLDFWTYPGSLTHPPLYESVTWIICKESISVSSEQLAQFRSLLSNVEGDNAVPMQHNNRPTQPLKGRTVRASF
Sequence of hCA XII (O43570 25-354): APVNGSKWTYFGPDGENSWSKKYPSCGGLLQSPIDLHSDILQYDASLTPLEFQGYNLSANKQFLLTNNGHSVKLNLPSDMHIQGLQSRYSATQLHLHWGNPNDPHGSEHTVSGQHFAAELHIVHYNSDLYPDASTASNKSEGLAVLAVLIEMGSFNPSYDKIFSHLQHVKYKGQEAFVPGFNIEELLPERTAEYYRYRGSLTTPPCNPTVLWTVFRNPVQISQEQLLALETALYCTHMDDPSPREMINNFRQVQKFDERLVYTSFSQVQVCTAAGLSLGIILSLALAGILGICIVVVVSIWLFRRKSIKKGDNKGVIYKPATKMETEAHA

On to `OB(O)O` [Boric acid], for which the IC50 amounted to 19.6 mM in assay [1] (HT29, WST-1, 24 h); 23 mM in assay [1] (HT29, WST-1, 48 h); 15.5 mM in assay [3]. The “CA IX levels compared to control” value is on record as “significantly reduced” in assay [2] (A375 hypoxic cell cultures), “significantly reduced” in assay [2] (A375 normoxic cell cultures), “increase” in assay [4] (HT29 hypoxic cell cultures) and “slight increase” in assay [4] (HT29 normoxic cell cultures). Moreover, the “decrease in plasma PSA levels” value in assay [5] was 88%. Moreover, the “decrease in tumour growth” value in [5] is 25 − 35%. The Ki on hCA XII was 6.2 mM; on hCA II it was 41 mM; at hCA I, 29.9 mM; on hCA IX, 2.8 mM.
